Assay results published in PubChem BioAssay (NCI).
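Protocol summary: plate cells (96-well), add compound at 5 concentrations, incubate 48 h, interpolate endpoints linearly. GI50: concentration for 50% inhibition of growth. At the TGI there is no net growth.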

Legend:
Experiment in all cases: inhibition of tumour cell growth, NCI panel, 48 h
[1] = tested on: SK-MEL-2 melanoma
[2] = tested on: UACC-62 melanoma
[3] = tested on: SF-295 CNS
[4] = tested on: SN12C renal
[5] = tested on: MDA-MB-231 breast
[6] = tested on: K-562 leukemia
[7] = tested on: HCT-15 colon
[8] = tested on: ACHN renal
[9] = tested on: SW-620 colon
[10] = tested on: MDA-MB-435

## Cc1ccc(NC(=O)c2sc3nc(C)c(C(O)c4ccccc4)cc3c2N)cc1 (stereo unspecified)
[1]
  GI50: 1.32 µM
  TGI: 67.3 µM
[2]
  GI50: 0.621 µM
  TGI: > 100 µM
[3]
  GI50: 0.339 µM
  TGI: 4.03 µM
[4]
  GI50: 0.664 µM
  TGI: 25.9 µM
[5]
  GI50: 0.777 µM
  TGI: 21.8 µM
[6]
  GI50: 0.333 µM
  TGI: > 100 µM
[7]
  GI50: 0.397 µM
  TGI: > 73 µM
[8]
  GI50: 0.658 µM
  TGI: 20.2 µM
[9]
  GI50: 0.355 µM
  TGI: 52.7 µM

## c1cc[c]([Pb]([c]2ccccc2)[c]2ccccc2)cc1
[1]
  GI50: 6.04 µM
  TGI: 24 µM
[2]
  GI50: 6.1 µM
  TGI: 19.8 µM
[3]
  GI50: 21.9 µM
  TGI: 58.3 µM
[4]
  GI50: 8.17 µM
  TGI: 22.3 µM
[6]
  GI50: 11 µM
  TGI: 61.4 µM
[7]
  GI50: 12.4 µM
  TGI: 28.4 µM
[8]
  GI50: 33.4 µM
  TGI: > 100 µM
[9]
  GI50: 21.2 µM
  TGI: 57.1 µM

## CN(C)C(c1ccccc1)C(O)c1ccccc1 (stereo unspecified)
[1]
  TGI: > 100 µM
[2]
  TGI: > 100 µM
[3]
  TGI: > 100 µM
[4]
  TGI: > 100 µM
[6]
  TGI: > 100 µM
[7]
  TGI: > 100 µM
[8]
  TGI: > 100 µM
[9]
  TGI: > 100 µM

## Cn1c2ccccc2c2c3[nH]c(=O)[nH]c(=O)c3c3c4ccccc4n(C)c3c21
[10]
  GI50: 3.05 µM
  TGI: > 100 µM
[1]
  GI50: 4.5 µM
  TGI: 19.7 µM
[2]
  GI50: 6.64 µM
  TGI: > 100 µM
[3]
  GI50: 10.5 µM
  TGI: 27.8 µM
[4]
  GI50: 4.21 µM
  TGI: > 100 µM
[5]
  GI50: 5.41 µM
  TGI: 31.4 µM
[7]
  GI50: 1.62 µM
  TGI: > 100 µM
[8]
  GI50: 1.33 µM
  TGI: 6.62 µM
[9]
  GI50: 2.67 µM
  TGI: > 100 µM

## N#CCC(=O)NC1C2CC3CC(C2)CC1C3 (stereo unspecified)
[1]
  TGI: 55.7 µM
[2]
  TGI: 28.7 µM
[3]
  TGI: 32 µM
[4]
  TGI: 31.5 µM
[6]
  TGI: > 100 µM
[7]
  TGI: 35.9 µM
[8]
  TGI: 33.3 µM
[9]
  TGI: 51.7 µM

## OC/C=C(\I)CCCOCOCc1ccccc1
[1]
  TGI: 47.7 µM
[2]
  TGI: > 100 µM
[3]
  TGI: > 100 µM
[4]
  TGI: > 100 µM
[6]
  TGI: > 100 µM
[7]
  TGI: > 100 µM
[8]
  TGI: > 100 µM
[9]
  TGI: > 100 µM

## Cc1[nH]c2ccccc2c1C1Cc2ccccc2N1C(=O)/C(Cl)=C/c1ccccc1 (stereo unspecified)
[1]
  TGI: > 100 µM
[2]
  TGI: > 100 µM
[3]
  TGI: > 100 µM
[4]
  TGI: > 100 µM
[6]
  TGI: > 100 µM
[7]
  TGI: > 100 µM
[8]
  TGI: > 100 µM
[9]
  TGI: > 100 µM

## CCCCCCC(=O)C/C(=N/NC(N)=S)C(=O)NC1C2CC3CC(C2)CC1C3 (stereo unspecified)
[1]
  TGI: > 100 µM
[2]
  TGI: > 100 µM
[3]
  TGI: > 100 µM
[4]
  TGI: > 100 µM
[8]
  TGI: > 100 µM
[9]
  TGI: > 100 µM

## CC(=O)N1C/C(=C\c2ccc(N(C)C)cc2)C(=O)/C(=C/c2ccc(N(C)C)cc2)C1
[2]
  TGI: > 100 µM
[3]
  TGI: > 100 µM
[4]
  TGI: > 100 µM
[6]
  TGI: > 100 µM
[7]
  TGI: > 100 µM
[8]
  TGI: > 100 µM
[9]
  TGI: > 100 µM

## Cc1nc2ccccc2c(=O)n1-c1ccccc1F
[1]
  TGI: > 100 µM
[2]
  TGI: > 100 µM
[3]
  TGI: > 100 µM
[4]
  TGI: > 100 µM
[6]
  TGI: > 100 µM
[7]
  TGI: > 100 µM
[8]
  TGI: > 100 µM
[9]
  TGI: > 100 µM

## CC(C)c1cc2c(O)c(c1)Cc1cc(C(C)C)cc(c1O)Cc1cc(C(C)C)cc(c1O)Cc1cc(C(C)C)cc(c1O)C2
[1]
  TGI: > 100 µM
[2]
  TGI: > 100 µM
[3]
  TGI: > 100 µM
[6]
  TGI: > 100 µM
[7]
  TGI: > 100 µM
[9]
  TGI: > 100 µM
